According to ChEMBL document CHEMBL3045777, “Response of selected horseweed (Conyza canadensis (L.) Cronq.) populations to glyphosate” (2004):

Key:
Erigeron canadensis [1] = assay: Herbicidal activity against compound-resistant Conyza canadensis (horseweed) isolate 1 under greenhouse condition at 3.36 kg ae/ha measured 21 days post treatment relative to control; assay type: functional
Erigeron canadensis [2] = assay: Herbicidal activity against compound-sensitive Conyza canadensis (horseweed) under greenhouse condition at 2.52 kg ae/ha measured 14 days post treatment relative to control; assay type: functional
Erigeron canadensis [3] = assay: Herbicidal activity against compound-sensitive Conyza canadensis (horseweed) under greenhouse condition at 1.68 kg ae/ha measured 21 days post treatment relative to control; assay type: functional
Erigeron canadensis [4] = assay: Herbicidal activity against compound-resistant Conyza canadensis (horseweed) isolate 1 under greenhouse condition at 0.84 kg ae/ha measured 14 days post treatment relative to control; assay type: functional
Erigeron canadensis [5] = assay: Herbicidal activity against compound-sensitive Conyza canadensis (horseweed) under greenhouse condition at 0.45 kg ae/ha measured 7 days post treatment relative to control; assay type: functional
Erigeron canadensis [6] = assay: Herbicidal activity against compound-sensitive Conyza canadensis (horseweed) under greenhouse condition assessed as fresh weight at 2.52 kg ae/ha measured 21 days post treatment relative to untreated control
Erigeron canadensis [7] = assay: Herbicidal activity against compound-resistant Conyza canadensis (horseweed) isolate 2 under greenhouse condition at 2.52 kg ae/ha measured 7 days post treatment relative to control; assay type: functional
Erigeron canadensis [8] = assay: Herbicidal activity against compound-resistant Conyza canadensis (horseweed) isolate 2 under greenhouse condition assessed as fresh weight at 1.25 kg ae/ha measured 21 days post treatment relative to untreated control
Erigeron canadensis [9] = assay: Herbicidal activity against compound-resistant Conyza canadensis (horseweed) isolate 2 under greenhouse condition at 1.25 kg ae/ha measured 7 days post treatment relative to control; assay type: functional
Erigeron canadensis [10] = assay: Herbicidal activity against Conyza canadensis (horseweed) under greenhouse condition at 0.05 kg ae/ha measured 14 days post treatment relative to control; assay type: functional
Erigeron canadensis [11] = assay: Herbicidal activity against compound-resistant Conyza canadensis (horseweed) isolate 1 under greenhouse condition at 9 kg ae/ha measured 14 days post treatment relative to control; assay type: functional
Erigeron canadensis [12] = assay: Herbicidal activity against compound-resistant Conyza canadensis (horseweed) isolate 1 under greenhouse condition at 2.52 kg ae/ha measured 7 days post treatment relative to control; assay type: functional
Erigeron canadensis [13] = assay: Herbicidal activity against compound-resistant Conyza canadensis (horseweed) isolate 2 under greenhouse condition at 9 kg ae/ha measured 14 days post treatment relative to control; assay type: functional
Erigeron canadensis [14] = assay: Herbicidal activity against compound-resistant Conyza canadensis (horseweed) isolate 1 under greenhouse condition at 3.36 kg ae/ha measured 7 days post treatment relative to control; assay type: functional
Erigeron canadensis [15] = assay: Herbicidal activity against compound-resistant Conyza canadensis (horseweed) isolate 2 under greenhouse condition at 3.36 kg ae/ha measured 7 days post treatment relative to control; assay type: functional
Erigeron canadensis [16] = assay: Herbicidal activity against compound-resistant Conyza canadensis (horseweed) isolate 2 under greenhouse condition at 1.68 kg ae/ha measured 7 days post treatment relative to control; assay type: functional
Erigeron canadensis [17] = assay: Herbicidal activity against compound-resistant Conyza canadensis (horseweed) isolate 1 under greenhouse condition at 0.84 kg ae/ha measured 7 days post treatment relative to control; assay type: functional
Erigeron canadensis [18] = assay: Herbicidal activity against compound-resistant Conyza canadensis (horseweed) isolate 2 under greenhouse condition at 1.25 kg ae/ha measured 21 days post treatment relative to control; assay type: functional
Erigeron canadensis [19] = assay: Herbicidal activity against compound-resistant Conyza canadensis (horseweed) isolate 2 under greenhouse condition assessed as fresh weight at 0.84 kg ae/ha measured 21 days post treatment relative to untreated control
Erigeron canadensis [20] = assay: Herbicidal activity against compound-resistant Conyza canadensis (horseweed) isolate 1 under greenhouse condition at 2.52 kg ae/ha measured 21 days post treatment relative to control; assay type: functional
Erigeron canadensis [21] = assay: Herbicidal activity against compound-sensitive Conyza canadensis (horseweed) under greenhouse condition assessed as fresh weight at 9 kg ae/ha measured 21 days post treatment relative to untreated control
Erigeron canadensis [22] = assay: Herbicidal activity against compound-resistant Conyza canadensis (horseweed) isolate 1 under greenhouse condition at 1.25 kg ae/ha measured 7 days post treatment relative to control; assay type: functional
Erigeron canadensis [23] = assay: Herbicidal activity against compound-resistant Conyza canadensis (horseweed) isolate 2 under greenhouse condition assessed as fresh weight at 1.68 kg ae/ha measured 21 days post treatment relative to untreated control
Erigeron canadensis [24] = assay: Herbicidal activity against compound-sensitive Conyza canadensis (horseweed) under greenhouse condition at 1.25 kg ae/ha measured 14 days post treatment relative to control; assay type: functional
Erigeron canadensis [25] = assay: Herbicidal activity against compound-sensitive Conyza canadensis (horseweed) under greenhouse condition at 0.84 kg ae/ha measured 14 days post treatment relative to control; assay type: functional
Erigeron canadensis [26] = assay: Herbicidal activity against compound-sensitive Conyza canadensis (horseweed) under greenhouse condition assessed as fresh weight at 0.84 kg ae/ha measured 21 days post treatment relative to untreated control
Erigeron canadensis [27] = assay: Herbicidal activity against compound-resistant Conyza canadensis (horseweed) isolate 2 under greenhouse condition at 2.52 kg ae/ha measured 21 days post treatment relative to control; assay type: functional
Erigeron canadensis [28] = assay: Herbicidal activity against compound-sensitive Conyza canadensis (horseweed) under greenhouse condition at 3.36 kg ae/ha measured 7 days post treatment relative to control; assay type: functional
Erigeron canadensis [29] = assay: Herbicidal activity against compound-sensitive Conyza canadensis (horseweed) under greenhouse condition at 9 kg ae/ha measured 7 days post treatment relative to control; assay type: functional
Erigeron canadensis [30] = assay: Herbicidal activity against compound-resistant Conyza canadensis (horseweed) isolate 2 under greenhouse condition at 0.84 kg ae/ha measured 7 days post treatment relative to control; assay type: functional
Erigeron canadensis [31] = assay: Herbicidal activity against compound-sensitive Conyza canadensis (horseweed) under greenhouse condition at 1.25 kg ae/ha measured 7 days post treatment relative to control; assay type: functional
Erigeron canadensis [32] = assay: Herbicidal activity against compound-sensitive Conyza canadensis (horseweed) under greenhouse condition at 3.36 kg ae/ha measured 14 days post treatment relative to control; assay type: functional
Erigeron canadensis [33] = assay: Herbicidal activity against compound-sensitive Conyza canadensis (horseweed) under greenhouse condition at 2.52 kg ae/ha measured 21 days post treatment relative to control; assay type: functional
Erigeron canadensis [34] = assay: Herbicidal activity against Conyza canadensis (horseweed) under greenhouse condition at 0.05 kg ae/ha measured 7 days post treatment relative to control; assay type: functional
Erigeron canadensis [35] = assay: Herbicidal activity against compound-resistant Conyza canadensis (horseweed) isolate 1 under greenhouse condition at 1.68 kg ae/ha measured 21 days post treatment relative to control; assay type: functional
Erigeron canadensis [36] = assay: Herbicidal activity against compound-sensitive Conyza canadensis (horseweed) under greenhouse condition at 0.84 kg ae/ha measured 7 days post treatment relative to control; assay type: functional
Erigeron canadensis [37] = assay: Herbicidal activity against compound-resistant Conyza canadensis (horseweed) isolate 1 under greenhouse condition at 0.84 kg ae/ha measured 21 days post treatment relative to control; assay type: functional
Erigeron canadensis [38] = assay: Herbicidal activity against compound-resistant Conyza canadensis (horseweed) isolate 1 under greenhouse condition at 9 kg ae/ha measured 7 days post treatment relative to control; assay type: functional

`O=C(O)CNCP(=O)(O)O` [GLYPHOSATE] gave an Activity (Erigeron canadensis [1]) of 75%, an Activity (Erigeron canadensis [2]) of 99% and an Activity (Erigeron canadensis [3]) of 99%. For the same compound, the Activity (Erigeron canadensis [4]) was 13%, the Activity (Erigeron canadensis [5]) was 40% and the “level, % of control” value (Erigeron canadensis [6]) was 2%. The Activity (Erigeron canadensis [7]) was 53%, the “level, % of control” value (Erigeron canadensis [8]) was 73% and the Activity (Erigeron canadensis [9]) was 33%. For the same compound, the Activity (Erigeron canadensis [10]) was 16%, the Activity (Erigeron canadensis [11]) was 80% and the Activity (Erigeron canadensis [12]) was 58%. For the same compound, the Activity (Erigeron canadensis [13]) was 91%, the Activity (Erigeron canadensis [14]) was 73% and the Activity (Erigeron canadensis [15]) was 60%. For the same compound, the Activity (Erigeron canadensis [16]) was 50%, the Activity (Erigeron canadensis [17]) was 20% and the Activity (Erigeron canadensis [18]) was 25%. For the same compound, the “level, % of control” value (Erigeron canadensis [19]) was 86%, the Activity (Erigeron canadensis [20]) was 59% and the “level, % of control” value (Erigeron canadensis [21]) was 1%. For the same compound, the Activity (Erigeron canadensis [22]) was 28%, the “level, % of control” value (Erigeron canadensis [23]) was 49% and the Activity (Erigeron canadensis [24]) was 92%. The Activity (Erigeron canadensis [25]) was 63%, the “level, % of control” value (Erigeron canadensis [26]) was 27% and the Activity (Erigeron canadensis [27]) was 63%. The Activity (Erigeron canadensis [28]) was 85%, the Activity (Erigeron canadensis [29]) was 90% and the Activity (Erigeron canadensis [30]) was 23%. The Activity (Erigeron canadensis [31]) was 60%, the Activity (Erigeron canadensis [32]) was 95% and the Activity (Erigeron canadensis [33]) was 99%. For the same compound, the Activity (Erigeron canadensis [34]) was 14%, the Activity (Erigeron canadensis [35]) was 43% and the Activity (Erigeron canadensis [36]) was 58%. It also gave an Activity (Erigeron canadensis [37]) of 11% and an Activity (Erigeron canadensis [38]) of 80%.
